Structures can show the parent of a compound that is named as a salt.
Key:
[1] = test system: bronchoconstriction induced by sodium arachidonate; assay: Dynamic compliance and airway resistance in the anaesthetized guinea pig challenged with sodium arachidonate; format: in vivo
Description: (§1) The ability of Cohn subfraction IV4 and haptoglobin to reduce the transient hypertension caused by administration of sodium arachidonate in the guinea pig was also measured. These tests were carried out as follows.
(§2) Male albino guinea pigs weighing 400-600 g each (Dunkin Hartley strain) were anesthetized by administration of sodium pentobarbitone, 60 mg/kg intraperitoneally. The trachea was cannulated for artificial ventilation by a Starling pump (5-8 ml at 72 strokes per minute) via a Fleisch 0000 pneumatachograph. The difference in pressure across this device was measured with a Grass differential pressure transducer. […] Transpulmonary pressure (TPP) was measured with another differential pressure transducer via side arms to the thoracic cavity and the tracheal cannula. The signals for low and TPP were applied to the analogue computer so that there was approximately 180° phase difference. The computer derived the dynamic compliance and resistance from the in-going signals. Drugs were administered intravenously via the external jugular vein. A 1 mg/ml solution of sodium arachidonate was prepared as follows. […] These doses were given at 30 minute intervals to produce a large but submaximal bronchoconstriction. After 2 or 3 similar responses to the same dose of sodium arachidonate had been obtained, the test substance in saline (0.1 to 1 ml) was injected intravenously. At various times thereafter, a challenge was given.

[2] = test system: transient hypertension induced by sodium arachidonate; assay: Mean arterial blood pressure in the anaesthetized guinea pig challenged with sodium arachidonate; format: in vivo
Description: as §1, §2
The left carotid artery was cannulated for recording blood pressure with a Grass pressure transducer (Consolidated Dynamics 0.75 cm Hg type 4L221) linked to a Devices twin channel polygraph via a CD2D pre-amplifier. Electrocardiograms were recorded using a DC6 pre-amplifier linked to the Devices polygraph.

[3] = dose 0.04 mg/kg intravenously, challenge 30 min after treatment
[4] = dose 0.20 mg/kg intravenously, challenge 30 min after treatment
[5] = dose 0.50 mg/kg intravenously, challenge 30 min after treatment
[6] = dose 0.50 mg/kg intravenously, challenge 60 min after treatment
[7] = dose 2 mg/kg intravenously, challenge 45 sec after treatment
[8] = dose 2 mg/kg intravenously, challenge 30 min after treatment
[9] = dose 15 mg/kg intravenously, challenge 45 sec after treatment
[10] = dose 15 mg/kg intravenously, challenge 10 min after treatment
[11] = dose 15 mg/kg intravenously, challenge 30 min after treatment
[12] = dose 15 mg/kg intravenously, challenge 60 min after treatment
[13] = dose 15 mg/kg intravenously, challenge 90 min after treatment
[14] = dose 15 mg/kg intravenously, challenge 120 min after treatment
[15] = dose 0.03 mg/kg intravenously, challenge 45 sec after treatment
[16] = dose 0.10 mg/kg intravenously, challenge 45 sec after treatment
[17] = dose 25μ/kg intravenously, challenge 30 min after treatment
[18] = dose 25μ/kg intravenously, challenge 60 min after treatment
[19] = dose 25μ/kg intravenously, challenge 90 min after treatment
[20] = dose 25μ/kg intravenously, challenge 120 min after treatment
[21] = dose 25μ/kg intravenously, challenge 150 min after treatment
[22] = dose 50μ/kg intravenously, challenge 30 min after treatment
[23] = dose 50μ/kg intravenously, challenge 60 min after treatment
[24] = dose 50μ/kg intravenously, challenge 90 min after treatment
[25] = dose 50μ/kg intravenously, challenge 120 min after treatment
[26] = dose 50μ/kg intravenously, challenge 150 min after treatment
[27] = dose 50μ/kg intravenously, challenge 180 min after treatment
[28] = dose 50μ/kg intravenously, challenge 210 min after treatment
[29] = dose 50μ/kg intravenously, challenge 240 min after treatment
[30] = dose 5 mg/kg intravenously, challenge 45 sec after treatment
[31] = dose 20 mg/kg intravenously, challenge 45 sec after treatment
[32] = dose 50 mg/kg intravenously, challenge 45 sec after treatment
[33] = dose 100 mg/kg intravenously, challenge 45 sec after treatment

C[C@]12CCC(=O)C=C1CC[C@@H]1[C@@H]2[C@@H](O)C[C@]2(C=O)[C@@H](C(=O)CO)CC[C@@H]12 [Aldosterone, aldosterone]
Mean % Inhibition (± s.e.) of educed dynamic lung compliance [1, 3]: 0% | Mean % Inhibition (± s.e.) of increased airway resistance [1, 3]: 9.0% | Mean % Inhibition (± s.e.) of educed dynamic lung compliance [1, 4]: 1.0% | Mean % Inhibition (± s.e.) of increased airway resistance [1, 4]: 14.0% | Mean % Inhibition (± s.e.) of educed dynamic lung compliance [1, 5]: 10.5 ± 6.5% | Mean % Inhibition (± s.e.) of increased airway resistance [1, 5]: 0% | Mean % Inhibition (± s.e.) of educed dynamic lung compliance [1, 6]: 5.0 ± 5.0% | Mean % Inhibition (± s.e.) of increased airway resistance [1, 6]: 6.5 ± 6.5%

CC(=O)Oc1ccccc1C(=O)O [Aspirin, aspirin calcium salt]
Mean % Inhibition (± s.e.) of educed dynamic lung compliance [1, 7]: 71.5 ± 6.5% | Mean % Inhibition (± s.e.) of increased airway resistance [1, 7]: 85.5 ± 3.5% | Mean % Inhibition (± s.e.) of educed dynamic lung compliance [1, 8]: 81.5 ± 7.5% | Mean % Inhibition (± s.e.) of increased airway resistance [1, 8]: 91.0 ± 9.0%

C[C@]12CCC(=O)C=C1CC[C@@H]1[C@@H]2[C@@H](O)C[C@@]2(C)[C@H]1CC[C@]2(O)C(=O)COC(=O)CCC(=O)O [Hydrocortisone, hydrocortisone sodium succinate]
Mean % Inhibition (± s.e.) of hypertension [2, 9]: 35.0 ± 2.0% | Mean % Inhibition (± s.e.) of hypertension [2, 10]: 48.0 ± 18.0% | Mean % Inhibition (± s.e.) of hypertension [2, 11]: 25.0 ± 25.0% | Mean % Inhibition (± s.e.) of hypertension [2, 12]: 25.0% | Mean % Inhibition (± s.e.) of educed dynamic lung compliance [1, 9]: 15.0 ± 7.5% | Mean % Inhibition (± s.e.) of increased airway resistance [1, 9]: 24.0 ± 1.5% | Mean % Inhibition (± s.e.) of educed dynamic lung compliance [1, 10]: 21.3 ± 4.2% | Mean % Inhibition (± s.e.) of increased airway resistance [1, 10]: 24.3 ± 6.8% | Mean % Inhibition (± s.e.) of educed dynamic lung compliance [1, 11]: 49.0 ± 9.7% | Mean % Inhibition (± s.e.) of increased airway resistance [1, 11]: 46.2 ± 5.7% | Mean % Inhibition (± s.e.) of educed dynamic lung compliance [1, 12]: 44.0 ± 6.0% | Mean % Inhibition (± s.e.) of increased airway resistance [1, 12]: 61.0 ± 3.0% | Mean % Inhibition (± s.e.) of educed dynamic lung compliance [1, 13]: 25.0% | Mean % Inhibition (± s.e.) of increased airway resistance [1, 13]: 54.0% | Mean % Inhibition (± s.e.) of educed dynamic lung compliance [1, 14]: 12.0% | Mean % Inhibition (± s.e.) of increased airway resistance [1, 14]: 17.0%

COc1ccc2c(c1)c(CC(=O)O)c(C)n2C(=O)c1ccc(Cl)cc1 [Indomethacin, indomethacin sodium salt]
Mean % Inhibition (± s.e.) of hypertension [2, 15]: 65.0 ± 2.1% | Mean % Inhibition (± s.e.) of educed dynamic lung compliance [1, 15]: 58.7 ± 15.7% | Mean % Inhibition (± s.e.) of increased airway resistance [1, 15]: 47.0 ± 15.8% | Mean % Inhibition (± s.e.) of educed dynamic lung compliance [1, 16]: 85.5 ± 14.5% | Mean % Inhibition (± s.e.) of increased airway resistance [1, 16]: 90.5 ± 9.5%

ACTH: a drenocorticotrophin (ACTH), well known anti-inflammatory agent (SYSMEHFRWGKPVGKKRRPVKVYPNGAEDESAEAFPLEF; Corticotropin; UniProt P01189 138-176, looked up)
Mean % Inhibition (± s.e.) of hypertension [2, 17]: 24.0 ± 10.0% | Mean % Inhibition (± s.e.) of hypertension [2, 18]: 28.5 ± 14.5% | Mean % Inhibition (± s.e.) of hypertension [2, 19]: 49.0 ± 15.0% | Mean % Inhibition (± s.e.) of hypertension [2, 20]: 53.5 ± 3.5% | Mean % Inhibition (± s.e.) of hypertension [2, 21]: 17.0% | Mean % Inhibition (± s.e.) of hypertension [2, 22]: 83.0% | Mean % Inhibition (± s.e.) of hypertension [2, 23]: 67.0% | Mean % Inhibition (± s.e.) of hypertension [2, 24]: 100.0% | Mean % Inhibition (± s.e.) of hypertension [2, 25]: 67.0% | Mean % Inhibition (± s.e.) of hypertension [2, 26]: 100.0% | Mean % Inhibition (± s.e.) of hypertension [2, 27]: 83.0% | Mean % Inhibition (± s.e.) of hypertension [2, 28]: 100.0% | Mean % Inhibition (± s.e.) of hypertension [2, 29]: 100.0% | Mean % Inhibition (± s.e.) of educed dynamic lung compliance [1, 17]: 16.5 ± 16.5% | Mean % Inhibition (± s.e.) of increased airway resistance [1, 17]: 31.5 ± 24.5% | Mean % Inhibition (± s.e.) of educed dynamic lung compliance [1, 18]: 35.5 ± 2.5% | Mean % Inhibition (± s.e.) of increased airway resistance [1, 18]: 55.5 ± 3.5% | Mean % Inhibition (± s.e.) of educed dynamic lung compliance [1, 19]: 62.5 ± 12.5% | Mean % Inhibition (± s.e.) of increased airway resistance [1, 19]: 72.5 ± 12.5% | Mean % Inhibition (± s.e.) of educed dynamic lung compliance [1, 20]: 53.0 ± 3.0% | Mean % Inhibition (± s.e.) of increased airway resistance [1, 20]: 68.5 ± 16.5% | Mean % Inhibition (± s.e.) of educed dynamic lung compliance [1, 21]: 63.0% | Mean % Inhibition (± s.e.) of increased airway resistance [1, 21]: 85.0% | Mean % Inhibition (± s.e.) of increased airway resistance [1, 22]: 52.0% | Mean % Inhibition (± s.e.) of increased airway resistance [1, 23]: 73.0% | Mean % Inhibition (± s.e.) of increased airway resistance [1, 24]: 73.0% | Mean % Inhibition (± s.e.) of increased airway resistance [1, 25]: 91.0% | Mean % Inhibition (± s.e.) of increased airway resistance [1, 26]: 68.0% | Mean % Inhibition (± s.e.) of increased airway resistance [1, 27]: 59.0% | Mean % Inhibition (± s.e.) of increased airway resistance [1, 28]: 66.0% | Mean % Inhibition (± s.e.) of increased airway resistance [1, 29]: 67.0% | Mean % Inhibition (± s.e.) of educed dynamic lung compliance ([1]; intravenously, challenge 30 min after treatment): 67.0% | Mean % Inhibition (± s.e.) of educed dynamic lung compliance ([1]; intravenously, challenge 60 min after treatment): 50.0% | Mean % Inhibition (± s.e.) of educed dynamic lung compliance ([1]; intravenously, challenge 90 min after treatment): 67.0% | Mean % Inhibition (± s.e.) of educed dynamic lung compliance ([1]; intravenously, challenge 120 min after treatment): 75.0% | Mean % Inhibition (± s.e.) of educed dynamic lung compliance ([1]; intravenously, challenge 150 min after treatment): 58.0% | Mean % Inhibition (± s.e.) of educed dynamic lung compliance ([1]; intravenously, challenge 180 min after treatment): 75.0% | Mean % Inhibition (± s.e.) of educed dynamic lung compliance ([1]; intravenously, challenge 210 min after treatment): 75.0% | Mean % Inhibition (± s.e.) of educed dynamic lung compliance ([1]; intravenously, challenge 240 min after treatment): 75.0%

Haptoglobin heated to 60° C 15 min: haptoglobin from Cohn subfraction IV4 by ammonium sulphate purification, partially heat-inactivated
Mean % Inhibition (± s.e.) of hypertension [2, 30]: 7.0 ± 7.0% | Mean % Inhibition (± s.e.) of educed dynamic lung compliance [1, 30]: 6.3 ± 6.3% | Mean % Inhibition (± s.e.) of increased airway resistance [1, 30]: 10.3 ± 5.2%

Haptoglobin: obtained from human plasma Cohn subfraction IV4 by ammonium sulphate purification and DEAE cellulose chromatography
Mean % Inhibition (± s.e.) of hypertension [2, 30]: 34.5 ± 13.9% | Mean % Inhibition (± s.e.) of hypertension [2, 31]: 83.5 ± 16.5% | Mean % Inhibition (± s.e.) of hypertension [2, 32]: 90.0 ± 10.0% | Mean % Inhibition (± s.e.) of hypertension [2, 33]: 73.0% | Mean % Inhibition (± s.e.) of educed dynamic lung compliance [1, 30]: 27.4 ± 5.3% | Mean % Inhibition (± s.e.) of increased airway resistance [1, 30]: 31.8 ± 4.7% | Mean % Inhibition (± s.e.) of educed dynamic lung compliance [1, 31]: 34.3 ± 7.4% | Mean % Inhibition (± s.e.) of increased airway resistance [1, 31]: 44.3 ± 6.7% | Mean % Inhibition (± s.e.) of educed dynamic lung compliance [1, 32]: 49.0 ± 3.2% | Mean % Inhibition (± s.e.) of increased airway resistance [1, 32]: 67.7 ± 0.3% | Mean % Inhibition (± s.e.) of educed dynamic lung compliance [1, 33]: 64.0 ± 0% | Mean % Inhibition (± s.e.) of increased airway resistance [1, 33]: 67.0 ± 8.0%

From patent US4129648A, “Method for reducing endogenous prostaglandin synthesis” (priority 1977, dated 1978)
